According to the supplement of paper PMC11208160:

Assay: recombinant UMI read abundance after kanamycin selection (control-corrected) (log10(CPM+1)); higher = more efficient recombination; extreme values may be limits of the assay; sequences stand for … in AGTGCAGAGAAAATCGGCCAGTTTTCTCTGCCTGCAGTCCGCATGCCGTGGGACCCCTTGGGTTCTAACCTGTTGCCTAGATTTATGCAGCGGACTGCCTTTCTCCCAAAGTGATAAACCGG…AGGTTGGTTTCACT; site = the 11-nt donor
Method in brief: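 After plating on IPTG (0.07 mM) plus kanamycin, or unselected, in two replicates, recombinant UMIs were PCR-amplified across the donor–target junction and sequenced. The cells were Escherichia coli co-electroporated with a UMI-tagged donor and donor-binding-loop pair library and a target plasmid with a fixed target and T7-inducible IS621 bridge recombinase. Values are log10(CPM+1), with CPM averaged over replicates and scaled by control-derived factors.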

Row | Sequence | recombinant UMI read abundance (log10)
1 | CCCGGTGCATGGACCGGTTTTCCCGGTAATCCGTATTTGAT (site CCTGGTGCTAT) | 0.00284
2 | CCCGGTGCATGGACCGGTTTTCCCGGTAATCCGTATTTGCA (site CCCGGTACTTG) | 0
3 | CCCGGTGCATGGACCGGTTTTCCCGGTAATCCGTATTTGCA (site CCCGGTCCTTG) | 0.0126
4 | CCCGGTGCATGGACCGGTTTTCCCGGTAATCCGTATTTGCA (site CCCGGTGCTTG) | 0
5 | CCCGGTGCATGGACCGGTTTTCCCGGTAATCCGTATTTGCA (site CCCGGTTCTTG) | 0
6 | CCCGTATCATGGACCGGTTTTCCCGGTAATCCGTATTTGTC (site CCCATATCTGA) | 0.605
7 | CCCGTATCATGGACCGGTTTTCCCGGTAATCCGTATTTGTC (site CCCCTATCTGA) | 0.0235
8 | CCCGTATCATGGACCGGTTTTCCCGGTAATCCGTATTTGTC (site CCCGTATCTGA) | 1.83
9 | CCCGTATCATGGACCGGTTTTCCCGGTAATCCGTATTTGTC (site CCCTTATCTGA) | 0
10 | CCCGTCCCATGGACCGGTTTTCCCGGTAATCCGTATTTGGA (site CCCGTCCCTTC) | 0.00421
11 | CCCGTGACATGGACCGGTTTTCCCGGTAATCCGTATTTGAT (site CCCGTGACTAT) | 1.05
12 | CCCGTTCCATGGACCGGTTTTCCCGGTAATCCGTATTTGGC (site CCCGTTCCTGC) | 0
13 | CCCGTTTCATGGACCGGTTTTCCCGGTAATCCGTATTTGAG (site CCCGTTTCTCT) | 0.807
14 | CCCTACCCATGGACCGGTTTTCCCGGTAATCCGTATTTGCC (site CCCTAACCTGG) | 0
15 | CCCTACCCATGGACCGGTTTTCCCGGTAATCCGTATTTGCC (site CCCTACCCTGG) | 0.541
16 | CCCTACCCATGGACCGGTTTTCCCGGTAATCCGTATTTGCC (site CCCTAGCCTGG) | 0
17 | CCCTACCCATGGACCGGTTTTCCCGGTAATCCGTATTTGCC (site CCCTATCCTGG) | 0
18 | CCCTAGACATGGACCGGTTTTCCCGGTAATCCGTATTTGGG (site ACCTAGACTCC) | 0.036
19 | CCCTAGACATGGACCGGTTTTCCCGGTAATCCGTATTTGGG (site CCCTAGACTCC) | 0.546

Row | Sequence | recombinant UMI read abundance (log10)
20 | CCCTAGACATGGACCGGTTTTCCCGGTAATCCGTATTTGGG (site GCCTAGACTCC) | 0.0233
21 | CCCTAGACATGGACCGGTTTTCCCGGTAATCCGTATTTGGG (site TCCTAGACTCC) | 0.0148
22 | CCCTAGCCATGGACCGGTTTTCCCGGTAATCCGTATTTGCC (site ACCTAGCCTGG) | 0
23 | CCCTAGCCATGGACCGGTTTTCCCGGTAATCCGTATTTGCC (site CACTAGCCTGG) | 0
24 | CCCTAGCCATGGACCGGTTTTCCCGGTAATCCGTATTTGCC (site CCATAGCCTGG) | 0
25 | CCCTAGCCATGGACCGGTTTTCCCGGTAATCCGTATTTGCC (site CCCAAGCCTGG) | 0
26 | CCCTAGCCATGGACCGGTTTTCCCGGTAATCCGTATTTGCC (site CCCCAGCCTGG) | 0
27 | CCCTAGCCATGGACCGGTTTTCCCGGTAATCCGTATTTGCC (site CCCGAGCCTGG) | 0
28 | CCCTAGCCATGGACCGGTTTTCCCGGTAATCCGTATTTGCC (site CCCTAACCTGG) | 0
29 | CCCTAGCCATGGACCGGTTTTCCCGGTAATCCGTATTTGCC (site CCCTACCCTGG) | 0
30 | CCCTAGCCATGGACCGGTTTTCCCGGTAATCCGTATTTGCC (site CCCTAGACTGG) | 0
31 | CCCTAGCCATGGACCGGTTTTCCCGGTAATCCGTATTTGCC (site CCCTAGCCTAG) | 0.00741
32 | CCCTAGCCATGGACCGGTTTTCCCGGTAATCCGTATTTGCC (site CCCTAGCCTCG) | 0.00555
33 | CCCTAGCCATGGACCGGTTTTCCCGGTAATCCGTATTTGCC (site CCCTAGCCTGA) | 0
34 | CCCTAGCCATGGACCGGTTTTCCCGGTAATCCGTATTTGCC (site CCCTAGCCTGC) | 0
35 | CCCTAGCCATGGACCGGTTTTCCCGGTAATCCGTATTTGCC (site CCCTAGCCTGG) | 0
36 | CCCTAGCCATGGACCGGTTTTCCCGGTAATCCGTATTTGCC (site CCCTAGCCTGT) | 0
37 | CCCTAGCCATGGACCGGTTTTCCCGGTAATCCGTATTTGCC (site CCCTAGCCTTG) | 0.00543
